{"source": "patent US20210032257A1", "about": "“(E)-1-(4-(DIMETHYLAMINO)BUT-2-ENOYL)PYRROLIDIN-3-YL 4-((3-ISOPROPYL-5-METHYLPYRAZOLO[1,5-A]PYRIMIDIN-7-YL)AMINO)PIPERIDINE-1-CARBOXYLATE FOR INHIBITING CDK7” (Eli Lilly and Company, priority 2017, published 2021)", "test_in_all_cases": "Biomarker study proliferation (CellTiter-Glo)", "format_in_all_cases": "cell-based", "key": {"HCC827": {"system": "HCC827", "in_short": "(§1)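 Cell lines were chosen by ARID1A, KMT2C, KMT2D and/or RB1 status from COSMIC and cBioportal. Viability after 7 days of treatment was measured by CellTiter-Glo luminescence, with 5 μM staurosporine as the full-inhibition control.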"}, "LNCAP": {"system": "LNCAP", "in_short": "as §1"}, "SNU16": {"system": "SNU16", "in_short": "as §1"}, "NCIH1703": {"system": "NCIH1703", "in_short": "as §1"}, "K562": {"system": "K562", "in_short": "as §1"}, "MKN45": {"system": "MKN45", "in_short": "as §1"}, "CT26": {"system": "CT26", "in_short": "as §1"}, "NCIH446": {"system": "NCIH446", "in_short": "as §1"}, "HCC1569": {"system": "HCC1569", "in_short": "as §1"}, "MKN74": {"system": "MKN74", "in_short": "as §1"}, "NCIH1092": {"system": "NCIH1092", "in_short": "as §1"}, "THP1": {"system": "THP1", "in_short": "as §1"}, "NCIH1734": {"system": "NCIH1734", "in_short": "as §1"}, "TYKNU": {"system": "TYKNU", "in_short": "as §1"}, "SNU449": {"system": "SNU449", "in_short": "as §1"}, "NCIH69": {"system": "NCIH69", "in_short": "as §1"}, "AN3CA": {"system": "AN3CA", "in_short": "as §1"}, "NCIH358": {"system": "NCIH358", "in_short": "as §1"}}}
{"smiles": "Cc1cc(NC2CCN(C(=O)O[C@H]3CCN(C(=O)/C=C/CN(C)C)C3)CC2)n2ncc(C(C)C)c2n1", "note": "[Example 1, [(3S)-1-[(E)-4-(dimethylamino)but-2-enoyl]pyrrolidin-3-yl] 4-[(3-isopropyl-5-methyl-pyrazolo[1,5-a]pyrimidin-7-yl)amino]piperidine-1-carboxylate]", "values": [{"measurement": "Anti-proliferation effect % Inh.", "setting": "HCC827; HCC827, LUNG, 7 days", "result": 69, "unit": "%"}, {"measurement": "Anti-proliferation effect Outcome", "setting": "HCC827; HCC827, LUNG, 7 days", "result": "Cytostatic (cytostatic (IC50<1 μM and % inhibition <70%))"}, {"measurement": "IC50", "setting": "HCC827; Homo sapiens, HCC827, 168 h, read-out: Anti-proliferation effect IC50", "result": 0.055, "unit": "µM"}, {"measurement": "IC50", "setting": "LNCAP; Homo sapiens, LNCaP, 168 h, read-out: Anti-proliferation effect IC50", "result": 0.059, "unit": "µM"}, {"measurement": "Anti-proliferation effect % Inh.", "setting": "LNCAP; LNCAP, PROSTATE, 7 days", "result": 74, "unit": "%"}, {"measurement": "Anti-proliferation effect Outcome", "setting": "LNCAP; LNCAP, PROSTATE, 7 days", "result": "Cytotoxic (cytotoxic (IC50<1 μM and % inhibition ≥70%))"}, {"measurement": "IC50", "setting": "SNU16; Homo sapiens, SNU-16, 168 h, read-out: Anti-proliferation effect IC50", "result": 0.017, "unit": "µM"}, {"measurement": "Anti-proliferation effect % Inh.", "setting": "SNU16; SNU16, STOMACH, 7 days", "result": 84, "unit": "%"}, {"measurement": "Anti-proliferation effect Outcome", "setting": "SNU16; SNU16, STOMACH, 7 days", "result": "Cytotoxic (cytotoxic (IC50<1 μM and % inhibition ≥70%))"}, {"measurement": "IC50", "setting": "NCIH1703; Homo sapiens, NCI-H1703, 168 h, read-out: Anti-proliferation effect IC50", "result": 0.04, "unit": "µM"}, {"measurement": "Anti-proliferation effect % Inh.", "setting": "NCIH1703; NCIH1703, LUNG, 7 days", "result": 92, "unit": "%"}, {"measurement": "Anti-proliferation effect Outcome", "setting": "NCIH1703; NCIH1703, LUNG, 7 days", "result": "Cytotoxic (cytotoxic (IC50<1 μM and % inhibition ≥70%))"}, {"measurement": "IC50", "setting": "K562; Homo sapiens, K562, 168 h, read-out: Anti-proliferation effect IC50", "result": "> 10", "unit": "µM"}, {"measurement": "Anti-proliferation effect % Inh.", "setting": "K562; K562, BLOOD, 7 days", "result": "−191", "unit": "%"}, {"measurement": "Anti-proliferation effect Outcome", "setting": "K562; K562, BLOOD, 7 days", "result": "Insensitive (insensitive (IC50≥1 μM))"}, {"measurement": "IC50", "setting": "MKN45; Homo sapiens, MKN-45, 168 h, read-out: Anti-proliferation effect IC50", "result": 0.056, "unit": "µM"}, {"measurement": "Anti-proliferation effect % Inh.", "setting": "MKN45; MKN45, STOMACH, 7 days", "result": 79, "unit": "%"}, {"measurement": "Anti-proliferation effect Outcome", "setting": "MKN45; MKN45, STOMACH, 7 days", "result": "Cytotoxic (cytotoxic (IC50<1 μM and % inhibition ≥70%))"}, {"measurement": "Anti-proliferation effect % Inh.", "setting": "CT26; CT26, INTESTINE, 7 days", "result": "−47", "unit": "%"}, {"measurement": "Anti-proliferation effect Outcome", "setting": "CT26; CT26, INTESTINE, 7 days", "result": "Insensitive (insensitive (IC50≥1 μM))"}, {"measurement": "IC50", "setting": "CT26; Mus musculus, CT26, 168 h, read-out: Anti-proliferation effect IC50", "result": "> 10", "unit": "µM"}, {"measurement": "IC50", "setting": "NCIH446; Homo sapiens, NCI-H446, 168 h, read-out: Anti-proliferation effect IC50", "result": 0.013, "unit": "µM"}, {"measurement": "Anti-proliferation effect % Inh.", "setting": "NCIH446; NCIH446, LUNG, 7 days", "result": 95, "unit": "%"}, {"measurement": "Anti-proliferation effect Outcome", "setting": "NCIH446; NCIH446, LUNG, 7 days", "result": "Cytotoxic (cytotoxic (IC50<1 μM and % inhibition ≥70%))"}, {"measurement": "Anti-proliferation effect % Inh.", "setting": "HCC1569; HCC1569, BREAST, 7 days", "result": 45, "unit": "%"}, {"measurement": "Anti-proliferation effect Outcome", "setting": "HCC1569; HCC1569, BREAST, 7 days", "result": "Cytostatic (cytostatic (IC50<1 μM and % inhibition <70%))"}, {"measurement": "IC50", "setting": "HCC1569; Homo sapiens, HCC1569, 168 h, read-out: Anti-proliferation effect IC50", "result": 0.067, "unit": "µM"}, {"measurement": "IC50", "setting": "MKN74; Homo sapiens, MKN-74, 168 h, read-out: Anti-proliferation effect IC50", "result": 0.073, "unit": "µM"}, {"measurement": "Anti-proliferation effect % Inh.", "setting": "MKN74; MKN74, STOMACH, 7 days", "result": 71, "unit": "%"}, {"measurement": "Anti-proliferation effect Outcome", "setting": "MKN74; MKN74, STOMACH, 7 days", "result": "Cytotoxic (cytotoxic (IC50<1 μM and % inhibition ≥70%))"}, {"measurement": "IC50", "setting": "NCIH1092; Homo sapiens, NCI-H1092, 168 h, read-out: Anti-proliferation effect IC50", "result": 0.683, "unit": "µM"}, {"measurement": "Anti-proliferation effect % Inh.", "setting": "NCIH1092; NCIH1092, LUNG, 7 days", "result": 42, "unit": "%"}, {"measurement": "Anti-proliferation effect Outcome", "setting": "NCIH1092; NCIH1092, LUNG, 7 days", "result": "Cytostatic (cytostatic (IC50<1 μM and % inhibition <70%))"}, {"measurement": "IC50", "setting": "THP1; Homo sapiens, THP-1, 168 h, read-out: Anti-proliferation effect IC50", "result": 0.042, "unit": "µM"}, {"measurement": "Anti-proliferation effect % Inh.", "setting": "THP1; THP1, BLOOD, 7 days", "result": 81, "unit": "%"}, {"measurement": "Anti-proliferation effect Outcome", "setting": "THP1; THP1, BLOOD, 7 days", "result": "Cytotoxic (cytotoxic (IC50<1 μM and % inhibition ≥70%))"}, {"measurement": "IC50", "setting": "NCIH1734; Homo sapiens, NCI-H1734, 168 h, read-out: Anti-proliferation effect IC50", "result": 0.024, "unit": "µM"}, {"measurement": "Anti-proliferation effect % Inh.", "setting": "NCIH1734; NCIH1734, LUNG, 7 days", "result": 76, "unit": "%"}, {"measurement": "Anti-proliferation effect Outcome", "setting": "NCIH1734; NCIH1734, LUNG, 7 days", "result": "Cytotoxic (cytotoxic (IC50<1 μM and % inhibition ≥70%))"}, {"measurement": "IC50", "setting": "TYKNU; 168 h, read-out: Anti-proliferation effect IC50", "result": 0.072, "unit": "µM"}, {"measurement": "Anti-proliferation effect % Inh.", "setting": "TYKNU; TYKNU, OVARY, 7 days", "result": 83, "unit": "%"}, {"measurement": "Anti-proliferation effect Outcome", "setting": "TYKNU; TYKNU, OVARY, 7 days", "result": "Cytotoxic (cytotoxic (IC50<1 μM and % inhibition ≥70%))"}, {"measurement": "IC50", "setting": "SNU449; Homo sapiens, SNU-449, 168 h, read-out: Anti-proliferation effect IC50", "result": 1.52, "unit": "µM"}, {"measurement": "Anti-proliferation effect % Inh.", "setting": "SNU449; SNU449, LIVER, 7 days", "result": 8, "unit": "%"}, {"measurement": "Anti-proliferation effect Outcome", "setting": "SNU449; SNU449, LIVER, 7 days", "result": "Insensitive (insensitive (IC50≥1 μM))"}, {"measurement": "IC50", "setting": "NCIH69; Homo sapiens, NCI-H69, 168 h, read-out: Anti-proliferation effect IC50", "result": 0.173, "unit": "µM"}, {"measurement": "Anti-proliferation effect % Inh.", "setting": "NCIH69; NCIH69, LUNG, 7 days", "result": 68, "unit": "%"}, {"measurement": "Anti-proliferation effect Outcome", "setting": "NCIH69; NCIH69, LUNG, 7 days", "result": "Cytostatic (cytostatic (IC50<1 μM and % inhibition <70%))"}, {"measurement": "Anti-proliferation effect % Inh.", "setting": "AN3CA; AN3CA, ENDOMETRIUM, 7 days", "result": 67, "unit": "%"}, {"measurement": "Anti-proliferation effect Outcome", "setting": "AN3CA; AN3CA, ENDOMETRIUM, 7 days", "result": "Cytostatic (cytostatic (IC50<1 μM and % inhibition <70%))"}, {"measurement": "IC50", "setting": "AN3CA; Homo sapiens, AN3-CA, 168 h, read-out: Anti-proliferation effect IC50", "result": 0.05, "unit": "µM"}, {"measurement": "IC50", "setting": "NCIH358; Homo sapiens, NCI-H358, 168 h, read-out: Anti-proliferation effect IC50", "result": 0.042, "unit": "µM"}, {"measurement": "Anti-proliferation effect % Inh.", "setting": "NCIH358; NCIH358, LUNG, 7 days", "result": 93, "unit": "%"}, {"measurement": "Anti-proliferation effect Outcome", "setting": "NCIH358; NCIH358, LUNG, 7 days", "result": "Cytotoxic (cytotoxic (IC50<1 μM and % inhibition ≥70%))"}]}
